# Test results: patent US8895032B2, “Dendritic nano-antioxidants” (Central Michigan University, priority 2009, dated 2014)
# “And” between values parts separate entries of the source, which are not always exact repeats. Equal entries are not always repeated.
# Legend:
# Assay type in all cases: biochemical
# plasmid DNA pBR 322 = experiment: Protection of plasmid DNA from AAPH damage (agarose electrophoresis); conditions: 10 mM AAPH, 37° C., 4 h
# [1] = FRAP assay (reduction of Fe(III) to Fe(II)); parameters: Slope of ΔA593 versus concentration: unit not given here; conditions: for Slope of ΔA593 versus concentration: 37° C.
# Experimental: The FRAP assay was performed as previously described (Pulido, et al. J. Agric. Food Chem. 2000, 48, 3396-3402, incorporated herein by reference in its entirety). In the FRAP assay, ferric was reduced by the antioxidant to ferrous via electron transfer (Benzie et al., Anal. Biochem. 1996, 239, 70-76, incorporated herein by reference in its entirety). This assay measured the redox potential of an antioxidant which is used as an estimate of antioxidant efficiency and expressed as a FRAP value. […] The compound 1 as well as the other antioxidants was dissolved in methanol. […] Reaction kinetics of the compound 1 and other antioxidants were obtained by plotting the change in slopes at various times and are shown in FIG. 18. […] This time-dependent increase in absorbance was previously reported (Pulido, et al. J. Agric. Food Chem. 2000, 48, 3396-3402, incorporated herein by reference in its entirety) and was especially significant with polyphenolic compounds. […] However, the FRAP value increased with time, reaching 2.5 in 60 min. […] J. Agric. Food Chem. 2000, 48, 3396-3402, incorporated herein by reference in its entirety). […] EC1 values, and therefore ferric reducing ability, were lower at longer reaction times as expected from the kinetic behavior of the antioxidants (Pulido, et al. J. Agric. Food Chem. 2000, 48, 3396-3402, incorporated herein by reference in its entirety).
# [2] = beta-carotene-linoleate assay; conditions: 50° C., 180 min, 470 nm
# Text: The ability of the dendritic antioxidants 1, 2, and 3 to protect linoleic acid against free radical damage was examined by the beta-carotene-linoleate model (Jayaprakasha, G. K., et al. Food Chem. 2001, 73, 285, incorporated herein by reference in its entirety). In the absence of an antioxidant, hydroperoxides formed from linoleic acid oxidation bleach the highly unsaturated beta-carotene by a free-radical-mediated phenomenon. The bleaching of the reddish-orange color of beta-carotene was monitored at 470 nm in the presence of various concentrations of antioxidant. The % absorbance (corrected for control without antioxidant) was determined at each antioxidant concentration after incubation at 50° C. for 180 min. The % A470 nm values were determined as follows: % A470 nm=[(At(180 min)/At(0 min))×100]−[(Ac(180 min)/Ac(0 min))×100], wherein At(180 min)=absorbance at 470 nm of antioxidant sample incubated at 50° C. for 180 min, At(0 min)=absorbance at 470 nm of antioxidant sample incubated at 50° C. for 0 min, Ac(180 min)=absorbance at 470 nm of control sample (without antioxidant) incubated at 50° C. for 180 min, and Ac(0 min)=absorbance at 470 nm of control sample (without antioxidant) incubated at 50° C. for 0 min. […] In FIG. 24, protection of linoleic acid from oxidation by various antioxidants is shown for compound 1 (□), compounds 2 and 3 (•), quercetin (x), and Trolox (Δ).
SMILES,"Antioxidant Capacity Relative to Trolox, FRAP 5 min ([1]; 5 min)",EC1 (concentration with ferric-TPTZ reducing ability equivalent to 1 mM FeSO4.7H2O) ([1]; 5 min) [µM],FRAP value relative to Fe(II) ([1]; 5 min),FRAP value relative to Fe(II) ([1]; 15 min),FRAP value relative to Fe(II) ([1]; 30 min),"Antioxidant Capacity Relative to Trolox, FRAP 60 min ([1]; 60 min)",EC1 (concentration with ferric-TPTZ reducing ability equivalent to 1 mM FeSO4.7H2O) ([1]; 60 min) [µM],FRAP value relative to Fe(II) ([1]; 60 min),Slope of ΔA593 versus concentration ([1]; Reaction time 5 min),Slope of ΔA593 versus concentration ([1]; Reaction time 15 min),Slope of ΔA593 versus concentration ([1]; Reaction time 30 min),Slope of ΔA593 versus concentration ([1]; Reaction time 60 min),protection of linoleic acid from oxidation [2],further results
COc1cc(CN(Cc2ccc(CN(Cc3cc(OC)c(O)c(OC)c3)Cc3cc(OC)c(O)c(OC)c3)cc2)Cc2cc(OC)c(O)c(OC)c2)cc(OC)c1O [Compound 1],6.1,74,13.5,14.6,15.1,7.2,63,15.8,0.163,0.175,0.182,0.190,most effective,"DNA protection (plasmid DNA pBR 322; 5 μM antioxidant): Some protection; DNA protection (S band intensity) (plasmid DNA pBR 322; 11-45 μM antioxidant): well protected; DNA protection (plasmid DNA pBR 322; below 5 μM antioxidant): No protection; FRAP, times better than ascorbic acid ([1]; 5 min): 6.7 times; Antioxidant Capacity Relative to Trolox, FRAP 5 min ([1]; 5 min, listed as compound 1): ~6 and 6.1; FRAP ratio to syringaldehyde ([1]; 5 min, listed as compound 1): ~2.6 times and 2.7 times; FRAP ratio to syringaldehyde ([1]; 60 min): 1.7 times; FRAP, times better than ascorbic acid ([1]; 60 min): 6.5 times; Antioxidant Capacity Relative to Trolox, FRAP 60 min ([1]; 60 min, listed as compound 1): ~7 and 7.2"
"Cc1c(C)c2c(c(C)c1O)CCC(C)(C(=O)O)O2 (stereo not shown) [Trolox, 6-hydroxy-2,5,7,8-tetramethylchroman-2-carboxylic acid]",1,450,2.2,2.2,2.2,1,449,2.2,0.0268,0.0269,0.0269,0.0269,more effective than compounds 2 and 3 (and quercetin) at lower concentrations,"DNA protection at all concentrations used (plasmid DNA pBR 322; 0.35-45 μM): ineffective; FRAP value, did not change with time ([1]; testing period 60 min): 2.2"
